Here are results for six compounds from patent US11357786B2, “Synthetic disugar hydrocarbons as natural analogs to control microbial behaviors” (Syracuse University, priority 2014, dated 2022).

“Also recorded” adds a separate entry of the source. Like-named read-outs stand apart in the source and are kept apart here.

One data set deals with 1-day old PAO1 biofilm. Kind of data set: Crystal violet assay for dispersion of 1-day old biofilm, DSHs (Examples 2 and 4). The following applies: 160 μM, another 24 h. Format: cell-based, Pseudomonas aeruginosa. The procedure: The effect that DSHs have on the adhesion of PAO1-EGFP on polystyrene surface (microtiter plate) was also examined. PAO1-EGFP is a P. aeruginosa strain that constitutively expresses green fluorescent protein. In the adhesion assays, PAO1-EGFP was grown in microtiter plate for 24-hours in LB-media with (160 μM) or without DSHs. After 24-hours, the fluorescent signal obtained from surface adhered PAO1-EGFP was measured. Percent reduction in fluorescence was calculated by comparing fluorescent signal from PAO1-EGFP grown in LB-media with the signal from wells that had DSHs (FIG. 29A). To study the effect of DSHs on biofilm formation, Pseudomonas aeruginosa (PAO1) was grown in LB-media with (160 μM) or without DSHs at 37° C. under static conditions within wells of microtiter plates. After 24 hours, the surface attached biofilms adhering to the bottom of the wells were stained with crystal-violet dye and the biofilm was quantified by measuring absorbance at 600 nm (OD600). The percent inhibition was calculated by comparing biofilm content of wells with no added agents (control) with the biofilm content from wells that had 160 μM of DSHs (FIG. 29A). Similar to inhibition, the surface attached biofilm after dispersion with DSHs was quantified with crystal-violet staining and absorbance measurement at 600 nm, except that for dispersion, biofilm was first grown for 1 day in just LB-media without any DSHs after which DSHs were added and plates were incubated for additional 24 hours followed by quantification (FIG. 29B).
Crystal violet based assay for quantifying dispersion of 1-day old PAO1 biofilms were Plate for set up similar to inhibition assay with a slight modification. Wells of the micro-titer plate was inoculated with (200 μL) bacterial subculture (PAO1 subculture OD600 ˜0.1). The plates were incubated at 37° C. for 24 hours to allow biofilm formation. After 24 hours, bacterial culture was gently pipetted out and appropriate volume of DSH were added followed by addition of fresh LB medium (200 μL). The microtiter plate was incubated for an additional 24 hours at 37° C., following which, similar to work up of inhibition assay, culture was removed, wells were washed and CV-dye was introduced, followed by washing and destaining with 30% AcOH solution in water and quantification at 600 nm. Here again, only the surface attached biofilm dispersed was reported by comparing wells with DSHs with wells with no agent.
Dose dependence assays for biofilm inhibition and dispersion. […] Both for biofilm inhibition and dispersion, predetermined volumes of DSH stocks were added to the assigned wells to span a concentration range between 0.5 μM-170 μM. Percent biofilm inhibition of dispersion was calculated by comparing to wells with no agent. The percent biofilm inhibition or dispersion was plotted versus concentration of DSHs. The linear values were logarithmically curve fitted using equation […]. The half maximal inhibitory concentration for both biofilm inhibition and dispersion (IC50 and DC50) were thus obtained.

For data set [1], the system named is PAO1 biofilm. In words: Crystal violet based static biofilm inhibition assay, DSHs in LB media (Examples 2 and 4). It counts as cell-based, Pseudomonas aeruginosa. The following applies: for Inhibition of PAO1 biofilm formation (surface attached): 160 μM, 24 h, LB media; for Anti-biofilm activity (biofilm inhibition): concentration not given. The method in brief: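 PAO1 subculture (OD600 ~0.1) was grown statically in LB at 37° C for 24 h with or without DSHs (screened at 160 μM). Surface-attached biofilm was then stained with 0.1% crystal violet, solubilised in 30% AcOH and read at 600 nm. Values are the mean of 4 wells.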

The subject of data set [2] is nonswarming P. aeruginosa mutant rhlA. Kind of data set: Swarming motility of nonswarming rhlA mutant on soft agar (reactivation / agonist assay). It counts as cell-based, Pseudomonas aeruginosa. The following applies: 85 μM in soft agar (0.5%), 24 h. The method in brief: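 rhlA transposon mutant of PAO1 (3 μl, OD600 0.4–0.6) inoculated on M8 soft agar (0.2% glucose, 0.5% casamino acids, 1 mM MgSO4, 0.5% agar) with test compound to find swarming agonists. Incubated 12 h at 37 °C plus 12 h at room temperature; swarm area measured by weighing paper cut-outs of imaged swarms.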

A further data set relates to wild type PAO1. Kind of data set: Swarming motility of wild type PAO1 on soft agar (antagonist assay). The note with it: for Swarming motility of wild type PAO1: 85 μM in soft agar, 24 h; for Effect on PAO1 swarming: concentration not given. Format: cell-based, Pseudomonas aeruginosa. In outline: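 Wild-type PAO1 culture (OD600 ~0.4–0.6, 3 μl) spotted on M8 swarm agar with 0.2% glucose, 0.5% casamino acids, 1 mM MgSO4 and 0.5% agar. Plates incubated 12 h at 37 °C then 12 h at room temperature; swarm area measured by cutting and weighing printed plate images.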

A further data set concerns PAO1-EGFP. In words: Fluorescence adhesion assay on polystyrene, DSHs (Examples 2 and 4). The following applies: 160 μM. It counts as cell-based, Pseudomonas aeruginosa. As to the method:
The ability of DSHs was tested to inhibit Pseudomonas aeruginosa adhesion, biofilm and to disperse pre-formed biofilm. To quantify the amount of PAO1/EGFP attached on the surface of micro titer plates with or without the synthesized DSHs, fluorescence emitted by green fluorescent proteins (GFP) was quantified (see supporting info for details). Crystal violet (CV) based static biofilm assay (see supporting info) was used to screen the anti-biofilm potencies of all synthesized agents. Both surface attached (SA) (FIG. 17) and total (SA+air-liquid interface) biofilm of P. aeruginosa was quantified. […] CV assays were also used to quantify the amount of P. aeruginosa biofilm remaining after dispersion experiments (FIG. 19). Initially, all agents were screen for anti-biofilm activities (both inhibition and dispersion) at 160 μM. […]
The effect that DSHs have on the adhesion of PAO1-EGFP on polystyrene surface (microtiter plate) was also examined. […] After 24-hours, the fluorescent signal obtained from surface adhered PAO1-EGFP was measured. Percent reduction in fluorescence was calculated by comparing fluorescent signal from PAO1-EGFP grown in LB-media with the signal from wells that had DSHs (FIG. 29A). […] After 24 hours, the surface attached biofilms adhering to the bottom of the wells were stained with crystal-violet dye and the biofilm was quantified by measuring absorbance at 600 nm (OD600). […]

In another data set the test system is PAO1-GFP. In words: microbe, parasite or virus in culture. It counts as cell-based, Pseudomonas aeruginosa. As to the method: (§1) A crystal violet (CV) assay was used to measure the amount of PAO1 biofilm formed after 24 h of bacterial inoculation. The fluorescence of green fluorescent proteins (GFP) expressed by PAO1-GFP was measured to directly quantify bacterial adhesion on polystyrene black 96 well plates with and without maltose derivatives after 2 h of bacterial inoculation. To evaluate the potential of maltose derivatives as both anti-biofilm and anti-adhesion agents, they were compared to a brominated furanone (BF8) known to inhibit biofilm formation, and two generic surfactants, sodium dodecyl sulfate (SDS) and tetra (ethylene glycol) monododecyl ether (C12EG4OH). […] P. aeruginosa strain PAO1-EGFP that constitutively producing green fluorescent protein was allowed to form biofilm on sterile steel coupons.
Overnight culture of PAO1-GFP was subcultured to an OD600 of 0.01 into the 95:5 M9+:Lb medium. Subculture was allowed to reach the OD600 of 0.1 in a rotary shaker at 250 rpm and 37° C. 200 μL of the subculture was then transferred to the wells of black microtiter plate with and without (control) maltose derivatives. This black 96 well plate was then incubated in a shaker at 37° C. for 2 h. After 2 h, bacterial culture from the plate was discarded and each well was washed once with saline water (0.85 w/v % aqueous NaCl solution). Fresh 95:5 M9+:Lb medium was added to the black 96 well plate and fluorescence of the surface adhered bacteria was measured by Synergy 2 multi-mode microplate reader with Gen5 data analysis software at an excitation wavelength of 500 nm and an emission wavelength of 540 nm. Background signal from 95:5 M9+:Lb medium was eliminated from all the samples.

Data set [3] concerns PAO1 biofilm. In words: Crystal violet dye based biofilm inhibition assay, maltose derivatives (Example 1). The note with it: 110 μM, 24 h, CV assay. It counts as cell-based, Pseudomonas aeruginosa. As to the method: as §1
Inhibitory effect of all the maltose hydrocarbons on P. aeruginosa biofilm formation was determined by crystal violet dye based biofilm inhibition assays. Overnight culture of wild type P. aeruginosa (PAO1) was sub cultured to an OD600 of 0.01 into the 95:5 M9+:Lb medium. 200 μL of the sub culture was aliquoted into the wells of 96 well polystyrene microtiter plate when it reached the OD600 of 0.1. Predetermined concentrations of the test compounds were then added to the respective wells containing sub culture. Sample plates were wrapped in GLAD Press n′ Seal® followed by incubation under stationary conditions for 24 h at 37° C. After incubation the media was discarded and the plates were washed with water and dried for 1 h at 37° C. The sample plates were stained with 200 μL of 0.1% aqueous solution of crystal violet (CV) and followed by incubation at ambient temperature for 20 min. The CV stain was then discarded and the plates were washed with water. The remaining biofilm adhered stain was re-solubilized with 200 μL of 30% acetic acid. After the stain was dissolved (15 minutes), 100 μL of the solubilized CV was transferred from each well into the corresponding wells of a new polystyrene microtiter dish. Biofilm inhibition was quantified by measuring the OD600 of each well in which a negative control lane wherein no biofilm was formed served as a background and was subtracted out. The percent inhibition was calculated by the comparison of the OD600 for biofilm grown in the absence of compound (control) versus biofilm grown in the presence of compound under identical conditions.
Predetermined amounts maltose derivatives stock solution was added to the 200 μL bacterial culture in 96 well plate so that the final concentration of the agent reaches the desired values of 1, 5, 10, 20, 40, 85, 113, 140 μM. Biofilm inhibition and dispersion assay was carried as described previously.

Data set [4] relates to Pseudomonas aeruginosa strain PAO1-BAA-47. In words: Mouse P. aeruginosa pneumonia model. Format: in vivo. The following applies: SP-A/D KO mice.

Procedure for Solubility in water: Stock solution of disaccharide hydrocarbons (DSHs). Stock solution (˜11.5 mM) of all synthesized and commercially available DSHs were prepared in autoclaved water and further sterilized by filtering through cellulose acetate syringe filter (0.2 μm pore size, GVS filter technology) into sterilized vials. The vials containing sterilized DSHs stocks were capped and stored at −20° C. and thawed prior to each use. Appropriate volume of sterile water was added to positive controls (no agents) in all assays to eliminate the effect of water. Stock solution of DβL (7), SFβL (15) and 2-ODαC (17) were prepared in sterile water and 200 proof EtOH in 90:10 ratio. For positive controls involving DβL (7), SFβL (15) and 2-ODαC (17) appropriate volumes of 90:10, H2O:EtOH was added.

Regarding dodecyl-β-cyclodextrin [DβCDS (18)], the “Dispersion of 24-h old PAO1 biofilm” value with 1-day old PAO1 biofilm is recorded as “promoted biofilm formation instead of causing dispersion”. In the data set on PAO1 biofilm [1], the “Inhibition of PAO1 biofilm formation (surface attached)” value (“Inhibition of PAO1 biofilm formation” for short) is on record as “insignificant biofilm inhibition” and the “Anti-biofilm activity (biofilm inhibition)” value is recorded as “weak anti-biofilm activity; also recorded: did not show anti-biofilm activities”. The “Inhibition of PAO1 biofilm formation” value in the data set with PAO1 biofilm [1] (listed as 18: DβCDS, 160 µM) is “increased the biofilm content”. In [2], the “Swarming motility of rhlA mutant” value was “no significant effect on the swarming motility”. Moreover, in the data set on wild type PAO1, the “Swarming motility of wild type PAO1” value is “no significant effect on the swarming motility” and the “Effect on PAO1 swarming” value is on record as “no apparent effect on PAO1 swarming”. In addition, in the data set on PAO1-EGFP, the “Adhesion inhibition of PAO1-EGFP on polystyrene” value stood at 29%.

On to `CC(C)CCCC(C)CCCC(C)CCO[C@@H]1O[C@H](CO)[C@@H](O[C@@H]2O[C@H](CO)[C@H](O)[C@H](O)[C@H]2O)[C@H](O)[C@H]1O` (stereo partly drawn) [SFβL (15), saturated famesyl-β-lactoside], for which the figures for the Solubility in water result in the data set “Solubility in water” and in the data set “Solubility in water” (listed as 15: SFβL) were “poor water-solubility” and “poor solubility in water; also recorded: not soluble in either water or in water/EtOH mixture”, respectively.

Take 12-hydroxy decyl β-maltose [12-HODeβM]: the “Swarming motility of rhlA mutant” value in data set [2] is “did not exhibit any significant activation of swarming”. Further, the “Inhibition of PAO1-EGFP adhesion on polystyrene” value in the data set on PAO1-GFP (85 μM, 2 h) was “about 7%”. The figures for the “Inhibition of PAO1 biofilm” value in the data set on PAO1 biofilm [3] and in the data set with PAO1 biofilm [3] (listed as HODeβM) were “about 30%” and 32%, respectively.

On to `CCCCCCCCCCCCO[C@@H]1O[C@H](CO)[C@@H](O[C@H]2O[C@H](CO)[C@@H](O)[C@H](O)[C@H]2O)[C@H](O)[C@H]1O` [DM, Dodecyl Maltoside], for which the “CFU number in the lung” value in data set [4] (50 μl of 170 μM intratracheal 24 h after infection, sacrifice 24 h later) is “significantly decreased CFU number in the lung”. For the same compound, the “Lung inflammation (histology, H&E)” value in data set [4] (50 μl of 170 μM intratracheal) was “improved the lung inflammation”.

With `CCCCCCCCCCCCO[C@@H]1O[C@@H](C)[C@H](O)[C@@H](O)[C@H]1O` [DαR (9), dodecyl-α-rhamnoside], the “Inhibition of PAO1 biofilm formation” value with PAO1 biofilm [1] (listed as 8: DαR, 160 µM) is “poor anti-biofilm activity”. In addition, in the data set with PAO1 biofilm [1], the “Anti-biofilm activity (biofilm inhibition)” value is recorded as “weak anti-biofilm activity”. Also, the “Swarming motility of rhlA mutant” value in data set [2] is “no apparent effect on rhlA”. For the same compound, in the data set on wild type PAO1, the “Swarming motility of wild type PAO1” value is recorded as “inhibited the swarming motility of wild type PAO1” and the “Effect on PAO1 swarming” value was “PAO1 swarming inhibitors”. Also, the “Adhesion inhibition of PAO1-EGFP on polystyrene” value with PAO1-EGFP was determined as 63%.

Consider `CC1=C(Br)/C(=C/Br)OC1=O` [BF8], for which, in the data set with PAO1-GFP (100 μM), the “Inhibition of PAO1 adhesion on polystyrene” value is recorded as “showed no inhibition; also recorded: does not inhibit the adhesion”. Besides, in the data set on PAO1 biofilm [3], the “Inhibition of PAO1 biofilm” value is listed as “about 35%”.
